Assay results: ChEMBL document CHEMBL6096703 (J Med Chem, 2025)

Experiments:
MDA-MB-436 [1] = assay: Antitumor activity against human MDA-MB-436 cells xenografted in female NOD/SCID mouse assessed as inhibition of tumor growth administered orally once every other day for 28 days; type: functional, cell-based; conditions: dose 0.3-3 mg/kg, route po, time 28.0 day
[2] = AUC(0 to t) in male Balb/c mouse at 1 mg/kg, iv measured upto 96 hrs by LC-MS/MS analysis; type: ADME, organism-based; conditions: in vivo, iv, 1 mg/kg, 96 h
[3] = Tmax in male Balb/c mouse at 1 mg/kg, iv measured upto 96 hrs by LC-MS/MS analysis; type: ADME, organism-based; conditions: in vivo
[4] = target: T1, Poly [ADP-ribose] polymerase 1 (Homo sapiens, UniProt P09874); assay: Inhibition of PARP1 in wild type human A549 cells preincubated with compound for 1 hr followed by H2O2 addition and measured after 5 mins by PARylation inhibition assay; type: cell-based
DLD-1 = assay: Inhibition of colony formation in BRCA2 knockout human DLD-1 cells assessed as reduction in survival rate incubated for 10 days by crystal violet staining based assay; type: functional, cell-based; conditions: dose 0.1-100 nM, time 10.0 day
[5] = Acute toxicity in Kunming mouse assessed as change in cellular morphology of lung at 100 mg/kg administered once every other day via gavage for 14 days by H and E staining based analysis; type: organism-based; conditions: in vivo, po, 336 h, time 14 day
MDA-MB-436 [6] = assay: Antitumor activity against human MDA-MB-436 cells xenografted in female NOD/SCID mouse assessed as tumor growth inhibition at 0.3 mg/kg, po administered once every other day for 28 days relative to control; type: functional; set-up: scale not given: the % may be the effect or the level left; conditions: time 28 day
[7] = Sub-acute toxicity in Kunming mouse assessed as change UREAL level at 100 to 300 mg/kg administered via gavage for 14 days; type: organism-based; conditions: in vivo, po, 336 h, dose 100-300 mg/kg, time 14 day
[8] = Sub-acute toxicity in Kunming mouse assessed as change ALTL level at 30 to 100 mg/kg administered via gavage once every other day for 14 days; type: organism-based; conditions: in vivo, po, 336 h, dose 30-100 mg/kg, time 14 day
[9] = Cmax in male Balb/c mouse at 1 mg/kg, iv measured upto 96 hrs by LC-MS/MS analysis; type: ADME, organism-based; conditions: in vivo
[10] = target: T1, Poly [ADP-ribose] polymerase 1; assay: Inhibition of PARP1 (unknown origin) preincubated with compound for 10 mins followed by DNA and NAD+ addition and measured after 60 mins by chemiluminescence based envision reader analysis
MDA-MB-436 [11] = assay: Induction of cell cycle arrest in human MDA-MB-436 cells assessed as accumulation of cells at G2/M phase at 100 nM incubated for 3 days by PI staining based flow cytometric analysis (Rvb =24.88%); type: functional; conditions: time 3 day
MDA-MB-436 [12] = assay: Antitumor activity against human MDA-MB-436 cells xenografted in female NOD/SCID mouse assessed as tumor regression rate at 3 mg/kg, po administered once every other day for 28 days relative to control; type: functional; conditions: time 28 day
[13] = Sub-acute toxicity in Kunming mouse assessed as change LDH2 level at 100 to 300 mg/kg administered via gavage for 14 days; type: organism-based; conditions: in vivo, po, 336 h, dose 100-300 mg/kg, time 14 day
MDA-MB-436 [14] = assay: Induction of cell cycle arrest in human MDA-MB-436 cells assessed as accumulation of cells at S phase at 100 nM incubated for 3 days by PI staining based flow cytometric analysis (Rvb =18.94%); type: functional; conditions: time 3 day
[15] = Tmax in rat at 2.5 mg/kg, po measured upto 96 hrs by LC-MS/MS analysis; type: ADME, organism-based; conditions: in vivo
[16] = Clearance in male Balb/c mouse at 1 mg/kg, iv measured upto 96 hrs by LC-MS/MS analysis; type: ADME, organism-based; conditions: in vivo, iv, 1 mg/kg, 96 h
[17] = Apparent volume of distribution in male Balb/c mouse at 1 mg/kg, iv measured upto 96 hrs by LC-MS/MS analysis; type: ADME, organism-based; conditions: in vivo, iv, 1 mg/kg, 96 h
[18] = Sub-acute toxicity in Kunming mouse assessed as change UREAL level at 30 to 100 mg/kg administered via gavage once every other day for 14 days; type: organism-based; conditions: in vivo, po, 336 h, dose 30-100 mg/kg, time 14 day
[19] = Sub-acute toxicity in Kunming mouse assessed as change ASTL level at 100 to 300 mg/kg administered via gavage for 14 days; type: organism-based; conditions: in vivo, po, 336 h, dose 100-300 mg/kg, time 14 day
[20] = Toxicity in female NOD/SCID mouse xenografted with human MDA-MB-436 cells assessed as histological changes in liver at 3 mg/kg, po administered once every other day for 28 days by H and E staining based analysis; type: organism-based; conditions: in vivo, 672 h, time 28 day
MDA-MB-436 [21] = assay: Induction of cell cycle arrest in human MDA-MB-436 cells assessed as accumulation of cells at G0/G1 phase at 1 nM incubated for 3 days by PI staining based flow cytometric analysis (Rvb =56.18%); type: functional; conditions: time 3 day
[22] = Acute toxicity in Kunming mouse assessed as change in cellular morphology of spleen at 100 mg/kg administered once every other day via gavage for 14 days by H and E staining based analysis; type: organism-based; conditions: in vivo, po, 336 h, time 14 day
[23] = Oral bioavailability in male Balb/c mouse at 1 mg/kg measured upto 96 hrs by LC-MS/MS analysis; type: ADME, organism-based; conditions: in vivo
MDA-MB-436 [24] = assay: Induction of cell cycle arrest in human MDA-MB-436 cells assessed as accumulation of cells at G0/G1 phase at 100 nM incubated for 3 days by PI staining based flow cytometric analysis (Rvb =56.18%); type: functional; conditions: time 3 day
MDA-MB-436 [25] = assay: Induction of cell cycle arrest in human MDA-MB-436 cells assessed as accumulation of cells at S phase at 1 nM incubated for 3 days by PI staining based flow cytometric analysis (Rvb =18.94%); type: functional; conditions: time 3 day
[26] = Half life in rat at 2.5 mg/kg, po measured upto 96 hrs by LC-MS/MS analysis; type: ADME, organism-based; conditions: in vivo

T1 sequence (P09874 whole entry): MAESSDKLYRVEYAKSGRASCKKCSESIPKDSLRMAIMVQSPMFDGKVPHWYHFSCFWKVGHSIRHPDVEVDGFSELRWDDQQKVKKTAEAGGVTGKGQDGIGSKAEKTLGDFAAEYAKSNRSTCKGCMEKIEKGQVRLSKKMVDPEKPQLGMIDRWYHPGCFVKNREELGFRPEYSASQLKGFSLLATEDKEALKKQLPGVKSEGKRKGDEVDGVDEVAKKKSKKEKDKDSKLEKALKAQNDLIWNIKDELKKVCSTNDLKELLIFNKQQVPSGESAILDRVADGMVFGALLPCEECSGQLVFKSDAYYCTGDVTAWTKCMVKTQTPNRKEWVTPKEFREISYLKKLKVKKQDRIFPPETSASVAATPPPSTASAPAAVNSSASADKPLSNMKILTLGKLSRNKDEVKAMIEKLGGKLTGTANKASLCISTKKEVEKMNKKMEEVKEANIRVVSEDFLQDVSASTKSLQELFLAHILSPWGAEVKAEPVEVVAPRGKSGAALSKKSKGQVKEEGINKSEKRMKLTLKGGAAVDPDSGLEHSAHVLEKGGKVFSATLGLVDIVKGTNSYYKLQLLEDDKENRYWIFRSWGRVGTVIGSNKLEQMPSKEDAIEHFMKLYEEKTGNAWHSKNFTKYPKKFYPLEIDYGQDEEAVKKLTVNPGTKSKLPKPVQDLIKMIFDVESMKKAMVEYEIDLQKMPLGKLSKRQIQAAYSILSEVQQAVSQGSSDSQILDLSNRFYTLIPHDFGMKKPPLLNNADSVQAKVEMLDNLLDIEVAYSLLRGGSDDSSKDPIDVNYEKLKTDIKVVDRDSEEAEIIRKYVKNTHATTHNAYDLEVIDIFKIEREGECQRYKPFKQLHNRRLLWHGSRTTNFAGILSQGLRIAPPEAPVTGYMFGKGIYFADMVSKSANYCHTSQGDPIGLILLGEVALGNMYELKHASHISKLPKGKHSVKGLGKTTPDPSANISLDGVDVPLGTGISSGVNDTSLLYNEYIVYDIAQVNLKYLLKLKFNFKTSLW

Compound: CCc1cc2ncc(CN3CC=C(c4ccc(C#N)cn4)CC3)cc2[nH]c1=O
- Activity (MDA-MB-436 [1]): Dose-dependent-effect
- AUCt [2]: 897.43221 µg·h/mL
- Tmax [3]: 4.8 min
- IC50 [4]: 4.1 nM
- inhibition (DLD-1): Dose-dependent-effect
- Activity [5]: Non-toxic
- Activity (MDA-MB-436 [6]): 89.9%
- Activity [7]: Non-toxic
- Activity [8]: Non-toxic
- Cmax [9]: 10.7 µg/mL
- IC50 [10]: 0.2 nM
- Activity (MDA-MB-436 [11]): 37.31%
- Activity (MDA-MB-436 [12]): 79.8%
- Activity [13]: Non-toxic
- Activity (MDA-MB-436 [14]): 9.37%
- Tmax [15]: 8 h
- CL [16]: 0.01 L/h/kg
- Vz [17]: 0.16 L/kg
- Activity [18]: Non-toxic
- Activity [19]: Non-toxic
- Activity [20]: Non-toxic
- Activity (MDA-MB-436 [21]): 56.97%
- Activity [22]: Non-toxic
- bioavailability [23]: 87.7%
- Activity (MDA-MB-436 [24]): 53.32%
- Activity (MDA-MB-436 [25]): 14.99%
- half-life [26]: 47.4 h
